Assay results: PMC7265341, “Quantifying CDK inhibitor selectivity in live cells” (Nature Communications, 2020)
Where two headings read alike, the source gives them in different places.

Key:
CDK1/Cyclin E1 = CDK1/Cyclin E1 (Homo sapiens, UniProt P06493); test: NanoBRET live-cell target engagement, CDK1-NanoLuc/Cyclin E1 in HEK-293; assay type: binding; conditions: CDK1/E1, read-out: Inhibition at 10µM (%)
CDK2/Cyclin E1 = CDK2/Cyclin E1 (Homo sapiens, UniProt P24941); test: NanoBRET live-cell target engagement, CDK2-NanoLuc/Cyclin E1 in HEK-293; assay type: binding; conditions: read-out: Inhibition at 10µM (%), CDK2/E1
CDK3/Cyclin E1 = CDK3/Cyclin E1 (Homo sapiens, UniProt Q00526); test: NanoBRET live-cell target engagement, CDK3-NanoLuc/Cyclin E1 in HEK-293; assay type: binding; conditions: CDK3/E1, read-out: Inhibition at 10µM (%)
CDK4/Cyclin D1 = CDK4/Cyclin D1 (Homo sapiens, UniProt P11802); test: NanoBRET live-cell target engagement, NanoLuc-CDK4/Cyclin D1 in HEK-293; assay type: binding; conditions: CDK4/D1; for IC50: read-out: IC50; for inhibition at 10 µM: read-out: Inhibition at 10µM (%)
CDK5/CDK5R1 = CDK5/CDK5R1 (Homo sapiens, UniProt Q00535); test: NanoBRET live-cell target engagement, CDK5-NanoLuc/CDK5R1 in HEK-293; assay type: binding; conditions: CDK5/CDK5R1, read-out: Inhibition at 10µM (%)
CDK6/Cyclin D1 = CDK6/Cyclin D1 (Homo sapiens, UniProt Q00534); test: NanoBRET live-cell target engagement, NanoLuc-CDK6/Cyclin D1 in HEK-293; assay type: binding; conditions: CDK6/D1; for IC50: read-out: IC50; for inhibition at 10 µM: read-out: Inhibition at 10µM (%)
CDK7 = CDK7 (Homo sapiens, UniProt P50613); test: NanoBRET live-cell target engagement, NanoLuc-CDK7 in HEK-293; assay type: binding; conditions: CDK7; for IC50: read-out: IC50; for inhibition at 10 µM: read-out: Inhibition at 10µM (%)
CDK8/Cyclin C = CDK8/Cyclin C (Homo sapiens, UniProt P49336); test: NanoBRET live-cell target engagement, NanoLuc-CDK8/Cyclin C in HEK-293; assay type: binding; conditions: CDK8/C, read-out: Inhibition at 10µM (%)
CDK9/Cyclin K = CDK9/Cyclin K (Homo sapiens, UniProt P50750); test: NanoBRET live-cell target engagement, NanoLuc-CDK9/Cyclin K in HEK-293; assay type: binding; conditions: CDK9/K, read-out: Inhibition at 10µM (%)
CDK11B/Cyclin L2 = CDK11B/Cyclin L2 (Homo sapiens, UniProt P21127); test: NanoBRET live-cell target engagement, CDK11B-NanoLuc/Cyclin L2 in HEK-293; assay type: binding; conditions: CDK11b/L2, read-out: Inhibition at 10µM (%)
CDK12/Cyclin K = CDK12/Cyclin K (Homo sapiens, UniProt Q9NYV4); test: NanoBRET live-cell target engagement, CDK12-NanoLuc/Cyclin K in HEK-293; assay type: binding; conditions: CDK12/K, read-out: Inhibition at 10µM (%)
CDK13/Cyclin K = CDK13/Cyclin K (Homo sapiens, UniProt Q14004); test: NanoBRET live-cell target engagement, CDK13-NanoLuc/Cyclin K in HEK-293; assay type: binding; conditions: CDK13/K, read-out: Inhibition at 10µM (%)
CDK14/Cyclin Y = CDK14/Cyclin Y (Homo sapiens, UniProt O94921); test: NanoBRET live-cell target engagement, CDK14-NanoLuc/Cyclin Y in HEK-293; assay type: binding; conditions: CDK14/Y, read-out: Inhibition at 10µM (%)
CDK15/Cyclin Y = CDK15/Cyclin Y (Homo sapiens, UniProt Q96Q40); test: NanoBRET live-cell target engagement, NanoLuc-CDK15/Cyclin Y in HEK-293; assay type: binding; conditions: CDK15/Y, read-out: Inhibition at 10µM (%)
CDK16/Cyclin Y = CDK16/Cyclin Y (Homo sapiens, UniProt Q00536); test: NanoBRET live-cell target engagement, CDK16-NanoLuc/Cyclin Y in HEK-293; assay type: binding; conditions: CDK16/Y; for IC50: read-out: IC50; for inhibition at 10 µM: read-out: Inhibition at 10µM (%)
CDK17/Cyclin Y = CDK17/Cyclin Y (Homo sapiens, UniProt Q00537); test: NanoBRET live-cell target engagement, CDK17-NanoLuc/Cyclin Y in HEK-293; assay type: binding; conditions: CDK17/Y, read-out: Inhibition at 10µM (%)
CDK18/Cyclin Y = CDK18/Cyclin Y (Homo sapiens, UniProt Q07002); test: NanoBRET live-cell target engagement, CDK18-NanoLuc/Cyclin Y in HEK-293; assay type: binding; conditions: CDK18/Y, read-out: Inhibition at 10µM (%)
CDK20/Cyclin H = CDK20/Cyclin H (Homo sapiens, UniProt Q8IZL9); test: NanoBRET live-cell target engagement, NanoLuc-CDK20/Cyclin H in HEK-293; assay type: binding; conditions: CDK20/H, read-out: Inhibition at 10µM (%)
CDK19/Cyclin C = CDK19/Cyclin C (Homo sapiens, UniProt Q9BWU1); test: NanoBRET live-cell target engagement, NanoLuc-CDK19/Cyclin C in HEK-293; conditions: read-out: Inhibition at 10µM (%), CDK19/C
CDK10/Cyclin L2 = CDK10/Cyclin L2 (Homo sapiens, UniProt Q15131); test: NanoBRET live-cell target engagement, CDK10-NanoLuc/Cyclin L2 in HEK-293; conditions: read-out: Inhibition at 10µM (%), CDK10/L2

Chain of CDK8/Cyclin C (P49336 whole entry): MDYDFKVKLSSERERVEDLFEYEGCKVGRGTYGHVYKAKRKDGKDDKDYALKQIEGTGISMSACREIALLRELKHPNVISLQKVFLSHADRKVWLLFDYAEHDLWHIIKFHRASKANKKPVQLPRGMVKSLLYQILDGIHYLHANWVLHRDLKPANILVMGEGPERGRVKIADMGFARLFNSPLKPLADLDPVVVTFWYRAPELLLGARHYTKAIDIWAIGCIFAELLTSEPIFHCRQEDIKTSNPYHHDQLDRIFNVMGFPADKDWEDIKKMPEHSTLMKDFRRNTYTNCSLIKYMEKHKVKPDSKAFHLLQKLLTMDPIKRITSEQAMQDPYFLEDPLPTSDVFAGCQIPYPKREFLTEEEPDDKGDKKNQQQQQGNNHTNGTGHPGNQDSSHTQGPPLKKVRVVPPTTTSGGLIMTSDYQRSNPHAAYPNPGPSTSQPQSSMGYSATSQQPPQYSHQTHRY
Chain of CDK8/Cyclin C (P24863 whole entry partner): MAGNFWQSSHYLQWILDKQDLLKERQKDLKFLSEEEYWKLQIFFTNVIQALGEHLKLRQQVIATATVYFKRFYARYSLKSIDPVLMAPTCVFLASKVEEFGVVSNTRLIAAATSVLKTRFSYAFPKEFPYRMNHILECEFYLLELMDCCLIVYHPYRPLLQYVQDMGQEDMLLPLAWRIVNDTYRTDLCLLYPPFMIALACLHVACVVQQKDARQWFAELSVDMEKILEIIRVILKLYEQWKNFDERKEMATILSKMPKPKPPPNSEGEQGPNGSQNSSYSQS
Chain of CDK14/Cyclin Y (O94921 whole entry): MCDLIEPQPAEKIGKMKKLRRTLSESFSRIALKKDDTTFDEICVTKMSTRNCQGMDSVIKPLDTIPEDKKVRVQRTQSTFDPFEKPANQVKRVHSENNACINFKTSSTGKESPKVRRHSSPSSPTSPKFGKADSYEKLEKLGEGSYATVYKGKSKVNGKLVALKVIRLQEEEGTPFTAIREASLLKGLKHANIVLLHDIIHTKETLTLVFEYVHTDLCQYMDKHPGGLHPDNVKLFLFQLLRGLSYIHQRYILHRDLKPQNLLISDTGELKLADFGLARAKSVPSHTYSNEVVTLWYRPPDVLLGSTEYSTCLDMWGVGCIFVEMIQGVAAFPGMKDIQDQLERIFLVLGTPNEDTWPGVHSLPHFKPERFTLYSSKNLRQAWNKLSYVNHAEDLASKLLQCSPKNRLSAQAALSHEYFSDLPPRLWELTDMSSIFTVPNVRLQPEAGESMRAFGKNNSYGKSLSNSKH
Chain of CDK14/Cyclin Y (Q8ND76 whole entry partner): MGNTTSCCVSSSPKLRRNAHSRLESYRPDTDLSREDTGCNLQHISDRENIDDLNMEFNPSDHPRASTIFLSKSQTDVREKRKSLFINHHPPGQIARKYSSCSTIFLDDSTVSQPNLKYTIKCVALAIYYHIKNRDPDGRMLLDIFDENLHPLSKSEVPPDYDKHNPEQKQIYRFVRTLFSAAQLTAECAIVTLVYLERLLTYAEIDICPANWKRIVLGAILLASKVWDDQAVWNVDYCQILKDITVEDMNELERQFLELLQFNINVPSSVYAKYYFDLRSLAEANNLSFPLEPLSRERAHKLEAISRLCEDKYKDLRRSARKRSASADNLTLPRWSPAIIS
Chain of CDK4/Cyclin D1 (P11802 whole entry): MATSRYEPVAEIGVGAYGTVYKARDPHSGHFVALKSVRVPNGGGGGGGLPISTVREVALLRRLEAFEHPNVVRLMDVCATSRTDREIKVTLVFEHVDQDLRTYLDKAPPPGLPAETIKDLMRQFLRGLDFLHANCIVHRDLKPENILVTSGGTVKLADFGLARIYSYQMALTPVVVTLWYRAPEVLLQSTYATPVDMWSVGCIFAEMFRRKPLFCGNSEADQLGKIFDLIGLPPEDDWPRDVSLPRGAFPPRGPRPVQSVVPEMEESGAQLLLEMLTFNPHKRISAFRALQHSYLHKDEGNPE
Chain of CDK4/Cyclin D1 (P24385 whole entry partner): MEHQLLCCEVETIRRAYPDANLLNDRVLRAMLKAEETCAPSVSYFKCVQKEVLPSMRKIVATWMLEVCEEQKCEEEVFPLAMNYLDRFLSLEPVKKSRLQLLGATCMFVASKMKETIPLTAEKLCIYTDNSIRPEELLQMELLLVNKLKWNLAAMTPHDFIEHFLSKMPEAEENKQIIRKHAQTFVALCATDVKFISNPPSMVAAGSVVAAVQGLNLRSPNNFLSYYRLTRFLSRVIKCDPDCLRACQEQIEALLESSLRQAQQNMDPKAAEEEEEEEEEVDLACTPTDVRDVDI
Chain of CDK18/Cyclin Y (Q07002 whole entry): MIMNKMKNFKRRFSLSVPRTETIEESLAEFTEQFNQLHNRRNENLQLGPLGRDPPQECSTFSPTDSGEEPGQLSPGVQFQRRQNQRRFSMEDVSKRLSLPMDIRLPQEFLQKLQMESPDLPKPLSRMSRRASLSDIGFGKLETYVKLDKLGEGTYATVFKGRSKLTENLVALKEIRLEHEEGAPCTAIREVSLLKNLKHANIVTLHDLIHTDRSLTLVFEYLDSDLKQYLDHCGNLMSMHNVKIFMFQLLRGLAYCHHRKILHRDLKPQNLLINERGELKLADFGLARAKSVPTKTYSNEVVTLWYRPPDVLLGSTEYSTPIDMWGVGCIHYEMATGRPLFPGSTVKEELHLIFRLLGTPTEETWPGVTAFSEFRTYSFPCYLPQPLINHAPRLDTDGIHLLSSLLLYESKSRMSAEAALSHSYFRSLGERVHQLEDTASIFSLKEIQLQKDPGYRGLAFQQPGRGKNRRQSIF
Chain of CDK18/Cyclin Y (Q8ND76 whole entry partner): as the sequence (Q8ND76 whole entry partner) above
Chain of CDK9/Cyclin K (P50750 whole entry): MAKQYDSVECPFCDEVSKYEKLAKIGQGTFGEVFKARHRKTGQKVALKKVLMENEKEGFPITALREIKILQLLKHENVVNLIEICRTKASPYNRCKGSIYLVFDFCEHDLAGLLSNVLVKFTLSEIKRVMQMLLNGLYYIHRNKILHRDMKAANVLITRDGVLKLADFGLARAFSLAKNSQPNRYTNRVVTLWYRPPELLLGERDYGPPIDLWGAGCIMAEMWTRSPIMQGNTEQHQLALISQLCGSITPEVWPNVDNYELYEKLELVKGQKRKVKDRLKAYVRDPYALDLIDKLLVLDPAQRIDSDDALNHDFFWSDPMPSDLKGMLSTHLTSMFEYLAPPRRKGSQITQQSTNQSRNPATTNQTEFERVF
Chain of CDK9/Cyclin K (O75909 whole entry partner): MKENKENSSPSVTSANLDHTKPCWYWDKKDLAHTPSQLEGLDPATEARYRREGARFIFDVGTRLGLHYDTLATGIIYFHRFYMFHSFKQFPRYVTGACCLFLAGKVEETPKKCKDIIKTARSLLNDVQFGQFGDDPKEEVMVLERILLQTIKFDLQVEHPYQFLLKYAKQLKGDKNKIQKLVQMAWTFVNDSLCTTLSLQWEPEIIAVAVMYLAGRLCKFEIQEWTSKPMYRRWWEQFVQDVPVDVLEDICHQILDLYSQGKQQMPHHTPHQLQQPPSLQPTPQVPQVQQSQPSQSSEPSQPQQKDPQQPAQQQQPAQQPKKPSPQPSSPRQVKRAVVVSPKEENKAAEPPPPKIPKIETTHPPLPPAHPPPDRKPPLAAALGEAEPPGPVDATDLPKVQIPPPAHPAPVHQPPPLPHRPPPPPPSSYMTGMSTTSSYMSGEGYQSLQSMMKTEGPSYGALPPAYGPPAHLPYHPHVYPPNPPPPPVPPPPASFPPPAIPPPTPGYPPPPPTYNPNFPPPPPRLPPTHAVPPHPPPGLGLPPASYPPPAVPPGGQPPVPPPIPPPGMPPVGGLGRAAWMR
Chain of CDK3/Cyclin E1 (Q00526 whole entry): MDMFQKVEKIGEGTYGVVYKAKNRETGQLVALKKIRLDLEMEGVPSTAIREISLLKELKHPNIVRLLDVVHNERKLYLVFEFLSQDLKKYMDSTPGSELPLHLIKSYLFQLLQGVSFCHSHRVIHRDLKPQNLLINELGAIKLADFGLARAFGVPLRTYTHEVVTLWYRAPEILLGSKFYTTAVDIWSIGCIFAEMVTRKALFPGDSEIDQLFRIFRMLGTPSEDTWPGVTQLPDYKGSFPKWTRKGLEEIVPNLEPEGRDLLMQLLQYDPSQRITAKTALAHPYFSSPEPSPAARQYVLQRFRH
Chain of CDK3/Cyclin E1 (P24864 whole entry partner): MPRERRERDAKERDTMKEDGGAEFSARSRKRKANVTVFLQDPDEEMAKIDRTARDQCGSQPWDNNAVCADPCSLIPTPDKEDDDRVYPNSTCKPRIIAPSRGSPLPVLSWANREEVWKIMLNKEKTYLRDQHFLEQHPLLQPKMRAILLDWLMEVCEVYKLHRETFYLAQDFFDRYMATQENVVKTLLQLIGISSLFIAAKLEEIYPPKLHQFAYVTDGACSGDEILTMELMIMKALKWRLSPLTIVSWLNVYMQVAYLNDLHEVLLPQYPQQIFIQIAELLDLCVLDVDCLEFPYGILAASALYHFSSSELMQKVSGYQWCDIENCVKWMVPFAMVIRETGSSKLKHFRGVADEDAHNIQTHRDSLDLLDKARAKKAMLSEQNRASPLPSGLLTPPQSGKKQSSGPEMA
Chain of CDK19/Cyclin C (Q9BWU1 whole entry): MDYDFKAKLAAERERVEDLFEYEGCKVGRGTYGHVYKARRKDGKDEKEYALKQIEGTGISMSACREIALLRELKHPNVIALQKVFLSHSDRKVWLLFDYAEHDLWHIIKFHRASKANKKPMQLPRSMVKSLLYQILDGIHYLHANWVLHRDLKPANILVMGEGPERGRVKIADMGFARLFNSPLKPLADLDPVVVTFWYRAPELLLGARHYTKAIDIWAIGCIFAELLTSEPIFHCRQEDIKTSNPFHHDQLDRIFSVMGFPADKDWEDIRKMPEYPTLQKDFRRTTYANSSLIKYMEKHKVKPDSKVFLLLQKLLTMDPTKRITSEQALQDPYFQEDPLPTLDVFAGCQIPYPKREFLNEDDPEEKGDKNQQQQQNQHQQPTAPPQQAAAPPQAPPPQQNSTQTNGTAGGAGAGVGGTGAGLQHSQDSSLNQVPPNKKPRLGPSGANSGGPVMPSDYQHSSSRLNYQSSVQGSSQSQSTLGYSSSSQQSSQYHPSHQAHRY
Chain of CDK19/Cyclin C (P24863 whole entry partner): as the sequence (P24863 whole entry partner) above

N#CCNC(=O)c1ccc(-c2ccnc(Nc3ccc(N4CCOCC4)cc3)n2)cc1 [Momelotinib]
inhibition at 10 µM (CDK1/Cyclin E1; average): 20% | inhibition at 10 µM (CDK1/Cyclin E1; experiment 1): 32.3% | inhibition at 10 µM (CDK1/Cyclin E1; experiment 2): 7.8% | inhibition at 10 µM (CDK2/Cyclin E1; average): 17.7% | inhibition at 10 µM (CDK2/Cyclin E1; experiment 1): 12.1% | inhibition at 10 µM (CDK2/Cyclin E1; experiment 2): 23.4% | inhibition at 10 µM (CDK3/Cyclin E1; average): 28.6% | inhibition at 10 µM (CDK3/Cyclin E1; experiment 1): 27.5% | inhibition at 10 µM (CDK3/Cyclin E1; experiment 2): 29.8% | IC50 (CDK4/Cyclin D1; average (± SEM where n=3)): 650 nM | inhibition at 10 µM (CDK4/Cyclin D1; average): 45.1% | IC50 (CDK4/Cyclin D1; experiment 1): 561 nM | inhibition at 10 µM (CDK4/Cyclin D1; experiment 1): 53.4% | IC50 (CDK4/Cyclin D1; experiment 2): 746 nM | inhibition at 10 µM (CDK4/Cyclin D1; experiment 2): 36.9% | inhibition at 10 µM (CDK5/CDK5R1; experiment 1): 7.6% | inhibition at 10 µM (CDK5/CDK5R1; experiment 2): 10% | IC50 (CDK6/Cyclin D1; average (± SEM where n=3)): 320 nM | inhibition at 10 µM (CDK6/Cyclin D1; average): 50.9% | IC50 (CDK6/Cyclin D1; experiment 1): 318 nM | inhibition at 10 µM (CDK6/Cyclin D1; experiment 1): 50.7% | IC50 (CDK6/Cyclin D1; experiment 2): 314 nM | inhibition at 10 µM (CDK6/Cyclin D1; experiment 2): 51.1% | IC50 (CDK7; average (± SEM where n=3)): 820 nM | inhibition at 10 µM (CDK7; average): 50.4% | IC50 (CDK7; experiment 1): 760 nM | inhibition at 10 µM (CDK7; experiment 1): 28.7% | IC50 (CDK7; experiment 2): 880 nM | inhibition at 10 µM (CDK7; experiment 2): 72.1% | inhibition at 10 µM (CDK8/Cyclin C; average): 2.5% | inhibition at 10 µM (CDK8/Cyclin C; experiment 1): 15.9% | inhibition at 10 µM (CDK8/Cyclin C; experiment 2): -10.8% | inhibition at 10 µM (CDK9/Cyclin K; average): 29.7% | inhibition at 10 µM (CDK9/Cyclin K; experiment 1): 29.8% | inhibition at 10 µM (CDK9/Cyclin K; experiment 2): 29.7% | inhibition at 10 µM (CDK11B/Cyclin L2; average): 52.5% | inhibition at 10 µM (CDK11B/Cyclin L2; experiment 1): 32.8% | inhibition at 10 µM (CDK11B/Cyclin L2; experiment 2): 72.2% | inhibition at 10 µM (CDK12/Cyclin K; average): -8.8% | inhibition at 10 µM (CDK12/Cyclin K; experiment 1): 5.9% | inhibition at 10 µM (CDK12/Cyclin K; experiment 2): -23.5% | inhibition at 10 µM (CDK13/Cyclin K; average): 3.2% | inhibition at 10 µM (CDK13/Cyclin K; experiment 1): 4.9% | inhibition at 10 µM (CDK13/Cyclin K; experiment 2): 1.4% | inhibition at 10 µM (CDK14/Cyclin Y; average): 16.5% | inhibition at 10 µM (CDK14/Cyclin Y; experiment 1): 15.4% | inhibition at 10 µM (CDK14/Cyclin Y; experiment 2): 17.7% | inhibition at 10 µM (CDK15/Cyclin Y; average): 8.1% | inhibition at 10 µM (CDK15/Cyclin Y; experiment 1): 12.2% | inhibition at 10 µM (CDK15/Cyclin Y; experiment 2): 4% | IC50 (CDK16/Cyclin Y; average (± SEM where n=3)): 450 nM | IC50 (CDK16/Cyclin Y; experiment 1): 177 nM | inhibition at 10 µM (CDK16/Cyclin Y; experiment 1): 31.8% | IC50 (CDK16/Cyclin Y; experiment 2): 730 nM | inhibition at 10 µM (CDK16/Cyclin Y; experiment 2): 64.3% | inhibition at 10 µM (CDK17/Cyclin Y; average): 43.1% | inhibition at 10 µM (CDK17/Cyclin Y; experiment 1): 26.9% | inhibition at 10 µM (CDK17/Cyclin Y; experiment 2): 59.3% | inhibition at 10 µM (CDK18/Cyclin Y; average): 18.4% | inhibition at 10 µM (CDK18/Cyclin Y; experiment 1): 14.9% | inhibition at 10 µM (CDK18/Cyclin Y; experiment 2): 21.8% | inhibition at 10 µM (CDK20/Cyclin H; experiment 1): 10.6% | inhibition at 10 µM (CDK20/Cyclin H; experiment 2): -4.4% | inhibition at 10 µM (CDK19/Cyclin C; average): 6.1% | inhibition at 10 µM (CDK19/Cyclin C; experiment 1): 10.6% | inhibition at 10 µM (CDK19/Cyclin C; experiment 2): 1.6% | inhibition at 10 µM (CDK10/Cyclin L2; average): 16.4% | inhibition at 10 µM (CDK10/Cyclin L2; experiment 1): 15.4% | inhibition at 10 µM (CDK10/Cyclin L2; experiment 2): 17.3%
